The text below walks through data of PMC8989888, “Development of optimized drug-like small molecule inhibitors of the SARS-CoV-2 3CL protease for treatment of COVID-19” (Nature Communications, 2022).

“And” between values parts separate entries of the source, which are not always exact repeats. Identical values can stand only once. Like-named read-outs stand apart in the source and are kept apart here.

The subject of assay [1] is SARS-CoV-2. The assay is described as follows: microbe, parasite or virus in culture. The class given is cell-based. As to conditions: Severe acute respiratory syndrome coronavirus 2, Vero C1008, read-out: SARS-CoV-2 Vero E6 EC50.
Assay [2] deals with T1, SARS-CoV-2 3CL protease (Severe acute respiratory syndrome coronavirus 2, UniProt P0DTD1). Put plainly: biochemical. As to conditions: for IC50 / % SARS-CoV-2 3CL activity: 20 nM protease; for IC50: read-out: SARS-CoV-2 3CLpro IC50; for % SARS-CoV-2 3CL activity / Normalized SARS-CoV-2 3CL protease activity: replicates; for Normalized SARS-CoV-2 3CL protease activity: 0.2 µM protease with 50 µM tested compound.

Assay [3] deals with T1, SARS-CoV-2 3CL protease. Put plainly: biochemical. As to conditions: for kinact/KI: read-out: SARS-CoV-2 3CLpro kinact/KI.
In assay [4] the test system is SARS-CoV-2. Put plainly: microbe, parasite or virus in culture. The format is cell-based. The conditions noted are these: for EC50: Severe acute respiratory syndrome coronavirus 2, 24 h, read-out: SARS-CoV-2 Huh-7ACE2 EC50.
The test system of assay [5] is Influenza A H1N1 (strain: California/07/2009). The assay is described as follows: microbe, parasite or virus in culture. The conditions noted are these: Influenza A virus, H1N1, MDCK, read-out: Influenza A (H1N1) MDCK EC50. The class given is cell-based.
Assay [6] has as its target T1, SARS-CoV-2 3CL protease. The assay is described as follows: cell-based.
The mark [7] stands for this setting: Concentration of inhibitor (nM) 0.19382.
Setting [8] is: Concentration of inhibitor (nM) 0.49485.
Where [9] appears, read: Concentration of inhibitor (nM) 0.79588.
Setting [10] is: Concentration of inhibitor (nM) 1.09691.
Where [11] appears, read: Concentration of inhibitor (nM) 1.39794.
Where [12] appears, read: Concentration of inhibitor (nM) 1.69897.
[13] abbreviates: Concentration of inhibitor (nM) 2.30103.
Where [14] appears, read: Concentration of inhibitor (nM) -0.10721.
The mark [15] stands for this setting: Concentration of inhibitor (nM) -0.40824.

For the molecule `CC(C)C[C@H](NC(=O)OCc1cccc2ccccc12)C(=O)N[C@@H](C[C@@H]1CCNC1=O)C(O)S(=O)(=O)O` (some centres unmarked) [EB55], the EC50 in assay [1] stood at 3000 nM; in assay [4], 11 nM. Further, the 50% inhibitory concentration (IC50) in assay [2] amounted to 72 nM. Besides, the “normalized activity, dose-response curve (Figure S16)” value (shortened to “normalized activity”) is 97.6947 and 91.9164 in assay [2] (setting [7]); 90.7787 and 89.6887 in assay [2] (setting [8]); 89.0003 and 83.5464 in assay [2] (setting [9]); 84.4555 and 78.5499 in assay [2] (setting [10]); 77.2102 and 70.0207 in assay [2] (setting [11]); 64.1027 and 59.773 in assay [2] (setting [12]). Moreover, the “normalized activity” value is 47.4055 and 42.8102 in assay [2] (Concentration of inhibitor (nM) 2); 16.7117 and 14.6768 in assay [2] (setting [13]); 100.329 and 102.132 in assay [2] (setting [14]); 100 in assay [2] (setting [15]). Also, in assay [3], the “observed inactivation rate vs compound concentration (Figure S19, replicate values)” value was 0.0457 and 0.0269 and 0.0571 and -0.0002 and 0.0258 and 0.0554 and 0.0425 and 0.0417 and 0.0134 and 0.0205 and 0.022 and 0.0066. Moreover, the kinact/KI in assay [3] is 21700 M⁻¹ s⁻¹. In assay [4], the “inhibition of SARS-CoV-2 (Figure s17b dose-response, replicate values)” value was 100.856 and 96.5428 and 101.322 and 91.4468 and 90.1295 and 92.8292 and 65.5151 and 69.1898 and 72.8142 and 38.0936 and 42.5735 and 35.1981 and 28.1354 and 24.4902 and 21.8952 and 10.9114 and 19.9799 and 11.8441 and 9.792 and 14.2234 and 10.7567.
Consider `O=C(N[C@@H](CC1CC1)C(=O)N[C@@H](C[C@@H]1CCNC1=O)C(O)S(=O)(=O)O)OCc1ccccc1Cl` (some centres unmarked) [NK01-69], for which the IC50 in assay [2] was found to be 24 nM. Also, the “normalized activity” value in assay [2] (setting [7]) is 88.5666 and 86.5188; in assay [2] (setting [8]), 72.8669 and 79.1809; in assay [2] (setting [9]) it was 75 and 74.3174; in assay [2] (setting [10]) it was 65.1024 and 60.8362; in assay [2] (setting [11]), 47.5256 and 39.3345; in assay [2] (setting [12]), 32.1672 and 24.5734. For the same molecule, the “normalized activity” value in assay [2] (setting [13]) was 4.608 and 4.693; in assay [2] (setting [14]), 106.997 and 100.683; in assay [2] (setting [15]) it was 89.5904 and 100. Besides, the “observed inactivation rate vs compound concentration (Figure S19, replicate values)” value in assay [3] is 0.0682 and 0.0478 and 0.0347 and 0.0227 and 0.0119 and 0.047 and -0.00793 and 0.0043 and 0.0066 and 0.0454 and 0.0603 and 0.0339 and 0.0459 and 0.0266 and 0.0345 and 0.0301 and 0.0444 and 0.0675. For the same molecule, the kinact/KI in assay [3] was 70000 M⁻¹ s⁻¹. Besides, the “inhibition of SARS-CoV-2 (Figure s17b dose-response, replicate values)” value in assay [4] is 112.139 and 77.9057 and 91.5513 and 79.8842 and 49.1022 and 70.5924 and 62.1924 and 62.9155 and 78.4113 and -0.7628 and 38.0643 and 11.5151 and -8.426 and 17.4096 and 4.8166 and -9.308 and 10.7894 and 11.3275 and 55.1502 and 29.5769 and 12.5491. The EC50 in assay [4] came out at 35 nM.
Consider `NC(=O)c1ncn([C@@H]2O[C@H](CO)[C@@H](O)[C@H]2O)n1` [Ribavirin, reference compound], for which the EC50 in assay [5] came out at 3200 nM.
Take `O=C(Oc1cncc(Cl)c1)c1ccco1` [T71]: the “% SARS-CoV-2 3CL activity” value was 86.3659% and 89.8434% in assay [2] (log10[nM] 0.19382); 80.2845% and 76.3012% in assay [2] (log10[nM] 0.49485); 65.6694% and 65.2855% in assay [2] (log10[nM] 0.79588); 47.7195% and 48.4083% in assay [2] (log10[nM] 1.09691); 16.1844% and 18.9995% in assay [2] (log10[nM] 1.39794); 0.4414% and 4.144% in assay [2] (log10[nM] 1.69897). The “% SARS-CoV-2 3CL activity” value in assay [2] (log10[nM] 2) was -3.629% and 1.061%; in assay [2] (log10[nM] 2.30103), -2.6974% and 0.4042%; in assay [2] (log10[nM] 2.60206), -1.9127% and -0.758%; in assay [2] (log10[nM] 2.90309), 0%; in assay [2] (log10[nM] -0.10721), 95.0956% and 96.5639%; in assay [2] (log10[nM] -0.40824), 100%. Besides, the half-inhibitory concentration (IC50) in assay [2] was found to be 11 nM. Further, the “Normalized SARS-CoV-2 3CL protease activity” value in assay [2] is 0.04328 and 0.01902 and 0.03148. For the same molecule, the “Absorbance (crystal violet), SARS-CoV-2 3CLpro” value (from here on “Absorbance (crystal violet)”) in assay [6] is 0.16 and 0.1636.
With `O=C(/C=C/c1ccc(F)cc1)Oc1cc(Cl)c[nH]c1=O` [Z14], in assay [2], the “Normalized SARS-CoV-2 3CL protease activity” value is 1.002 and 0.9823 and 0.9751. Besides, the “Absorbance (crystal violet)” value in assay [6] is 0.1689 and 0.1739.
In the case of `CC(=O)N1CCc2cc(C(=O)Oc3cncc(Cl)c3)ccc21` [Z21], the “Normalized SARS-CoV-2 3CL protease activity” value in assay [2] is 0.2321 and 0.2984. Also, the “Absorbance (crystal violet)” value in assay [6] was 0.1721 and 0.1614.
Turning to `Cn1ncc(C(=O)Oc2cncc(Cl)c2)c1-n1cccc1` [Z26], the “Normalized SARS-CoV-2 3CL protease activity” value in assay [2] is 0.2302 and 0.2702 and 0.2695. Besides, the “Absorbance (crystal violet)” value in assay [6] is 0.1558 and 0.1505.
For `CC(=O)Nc1ccc(C(=O)Oc2cncc(Cl)c2)cc1` [Z32], the “Normalized SARS-CoV-2 3CL protease activity” value in assay [2] was 0.07213 and 0.1423 and 0.1862. Besides, the “Absorbance (crystal violet)” value in assay [6] is 0.1483 and 0.1499.
`Cc1ncc(C(=O)Oc2cncc(Br)c2)s1` [Z43]: the “% SARS-CoV-2 3CL activity” value in assay [2] (log10[nM] 0.19382) is 81.5961% and 71.2676%; in assay [2] (log10[nM] 0.49485), 59.9348% and 65.0704%; in assay [2] (log10[nM] 0.79588) it was 59.9348% and 45.6338%; in assay [2] (log10[nM] 1.09691) it was 45.6026% and 45.2113%; in assay [2] (log10[nM] 1.39794) it was 33.0619% and 25.9155%; in assay [2] (log10[nM] 1.69897), 9.772% and 20%. For the same molecule, the “% SARS-CoV-2 3CL activity” value is -2.443% and 0.9859% in assay [2] (log10[nM] 2); -12.7036% and 7.042% in assay [2] (log10[nM] 2.30103); -11.2378% and 5.775% in assay [2] (log10[nM] 2.60206); 0% in assay [2] (log10[nM] 2.90309); 77.6873% and 77.6056% in assay [2] (log10[nM] -0.10721); 100% in assay [2] (log10[nM] -0.40824). In addition, the half-inhibitory concentration (IC50) in assay [2] came out at 14 nM. Besides, the “Normalized SARS-CoV-2 3CL protease activity” value in assay [2] is 0.007869 and 0.001311 and 0.005246. Further, the “Absorbance (crystal violet)” value in assay [6] is 0.1361 and 0.1268.
For `N#CCc1cccc(C(=O)Oc2cncc(Cl)c2)c1` [Z50], the “Normalized SARS-CoV-2 3CL protease activity” value in assay [2] is 0.05574 and 0.08721 and 0.4348. Further, in assay [6], the “Absorbance (crystal violet)” value was 0.1475 and 0.1394.
For `O=C(Oc1cncc(Br)c1)c1cc2c([nH]c1=O)CCCC2` [Z61], the “Normalized SARS-CoV-2 3CL protease activity” value in assay [2] was 0.4525 and 0.1738 and 0.3423. Also, in assay [6], the “Absorbance (crystal violet)” value is 0.1155 and 0.1264.
In the case of `CCn1nc(C)c(C(=O)Oc2cncc(Cl)c2)c1Cl` [Z65], the “Normalized SARS-CoV-2 3CL protease activity” value in assay [2] is 0.223 and 0.2216 and 0.2302. The “Absorbance (crystal violet)” value in assay [6] is 0.1475 and 0.1384.
In the case of `Cc1ncsc1C(=O)Oc1cncc(Cl)c1` [Z91], the “% SARS-CoV-2 3CL activity” value in assay [2] (log10[nM] 0.19382) is 84.3886% and 89.3518%; in assay [2] (log10[nM] 0.49485), 71.2882% and 83.5648%; in assay [2] (log10[nM] 0.79588) it was 67.1397% and 68.9815%; in assay [2] (log10[nM] 1.09691) it was 60.4804% and 65.625%; in assay [2] (log10[nM] 1.39794), 57.3144% and 59.9537%; in assay [2] (log10[nM] 1.69897), 31.5502% and 53.125%. For the same molecule, the “% SARS-CoV-2 3CL activity” value in assay [2] (log10[nM] 2) is 18.6681% and 32.7546%; in assay [2] (log10[nM] 2.30103), 6.9869% and 23.0324%; in assay [2] (log10[nM] 2.60206), 2.62% and 4.745%; in assay [2] (log10[nM] 2.90309), 0%; in assay [2] (log10[nM] -0.10721), 87.0087% and 88.8889%; in assay [2] (log10[nM] -0.40824) it was 100%. In assay [2], the IC50 is 31 nM. Besides, the “Normalized SARS-CoV-2 3CL protease activity” value in assay [2] is 0.02131 and 0.02295 and 0.01967. In addition, the “Absorbance (crystal violet)” value in assay [6] is 0.1428 and 0.134.
For `CN(C)S(=O)(=O)c1ccc(C(=O)Oc2cc(Cl)c[nH]c2=O)cc1` [Z97], the “Normalized SARS-CoV-2 3CL protease activity” value in assay [2] was 0.9508 and 0.9056 and 0.9639. In addition, in assay [6], the “Absorbance (crystal violet)” value was 0.1516 and 0.1477.
